How the values were obtained:
AMPARs = assay: Staining of AMPARs in acute cerebellar slices; type: binding, mouse; conditions: 30 nM probe; acute cerebellar slices; incubation at least 5 min
Protocol: following secondary antibodies were used: donkey anti-mouse CF568 conjugated (Sigma, […]
1:1,000) and anti-rabbit Alexa Fluor Plus 488 conjugated (Invitrogen, A32731, 1,000).
Imaging was performed with confocal microscopy.
With two-step labeling, the cells were labeled as described in “Two -step labeling and PFQX1(AF488)staining in cultured neurons,” followed by immunostaining.
In fig. S9A, the cells were incubated with 500 nM CellTracker Red CMPTX (Invitrogen) instead of Calcein Red AM for 30 min at 37 °C to visualize the intracellular region before the immunostaining.
Preparation and staining of cerebellar acute brain slices
C57BL/6J mice (3 weeks) were anesthetized with isoflurane, and their brains were isolated and immediately transferred to ice-cold cutting solution buffer (120 mM Choline Chloride, 3 mM KCl, 8 mM MgCl2, 1.25 mM NaH2PO4, 28 mM NaHCO3, 22 mM Glucose, and 0.5 mM Sodium ascorbate) gassed with 5% CO2 and 95% O2 and incubated for 5 min. Sagittal cerebellar slices were cut with a microslicer (Neo-linear slicer NLS-MT; DOSAKA EM) in cutting solution buffer and then incubated in ACSF […]
NaHCO3, 10 mM Glucose) gassed with 5% CO 2 and 95% O 2 at 37 °C.
Acute slices were transferred to glass bottom dishes and treated with 30 nM PFQX1(AF488) in HEPES-based ACSF for 5 min. […]
Scale bars, 500 µm. (F) Quantification of probe intensity in Ε. […]

GluA2flip(R) + TARP γ7 = target: T1, GluA2flip(R) + TARP γ7 (Mus musculus, UniProt P23819, DEL765-802/Q607R); assay: Concentration-dependent binding of PFQX1(AF488) to GluA2flip(R) expressed with TARP γ7 in HEK293T cells; conditions: n = 3–4, read-out: Kd / Affinity of PFQX1(AF488) to GluA2flip(R) with TARP γ7
T1 construct: expressed in transfected cells; host or cells: HEK293T
Protocol: HEK293T cells (American Type Culture Collection) were cultured in Dulbecco’s modified Eagle’s medium (DMEM)–GlutaMAX (Invitrogen) supplemented with 10% fetal bovine serum (FBS) (Sigma-Aldrich), penicillin (100 U ml^−1), and streptomycin (100 μg ml^−1) and incubated in a 5% CO2 humidified chamber at 37°C. Cells were transfected with a plasmid using Lipofectamine 3000 (Invitrogen) according to the manufacturer’s instructions. Twenty-four hours after transfection, the cells were seeded on glass-bottom dishes coated with poly-L-lysine solution and incubated for 24 hours except for GluA4, TARP γ7, and GluK2. For GluA4, TARP γ7, and GluK2 expression, the cells were used 24 hours after transfection. […]
HEK293T cells were cotransfected with plasmids for AMPAR [5′UTR-GluA1^flip(R)-3′UTR, GluA2^flip(Q)-3′UTR, GluA3^flip(Q) (Y454A/R461G), and GluA4^flip(Q)], kainate receptor [GluK2(Q)], auxiliary subunits, or the control vector and transfection marker (EFGP-F or mCherry-F). […] Fluorescence images were acquired by excitation at 405, 488, 561, or 640 nm derived from diode lasers.
For evaluating the concentration dependency of fluorophore-ligand conjugates, 0.1 nM probe in HBS was added to the dish. […] Cell surface fluorescence intensity was quantified from the line scans of transfection marker positive cells and calculated with subtraction of background by ZEN blue software (Carl Zeiss). […]

GluA2flip(R) = target: T2, GluA2flip(R) (Mus musculus, UniProt P23819, DEL765-802/Q607R); assay: Concentration-dependent binding of PFQX1(AF488) to GluA2flip(R) expressed alone in HEK293T cells; conditions: n = 3–4, read-out: Kd / Affinity of PFQX1(AF488) to GluA2flip(R) expressed alone (–)
T2 construct: expressed in transfected cells; host or cells: HEK293T
Protocol: HEK293T cells were cotransfected with plasmids for AMPAR [5′UTR-GluA1^flip(R)-3′UTR, GluA2^flip(Q)-3′UTR, GluA3^flip(Q) (Y454A/R461G), and GluA4^flip(Q)], kainate receptor [GluK2(Q)], auxiliary subunits, or the control vector and transfection marker (EFGP-F or mCherry-F). Fluorophore-ligand conjugates were diluted in Hepes-buffered saline (HBS) buffer [20 mM Hepes (pH 7.4), 107 mM NaCl, 6 mM KCl, 1.2 mM MgSO4, 2 mM CaCl2, and 11.5 mM glucose] and added to the cells. Confocal live imaging was performed with LSM900 (Carl Zeiss) equipped with a 63×, numerical aperture (NA) = 1.4 oil-immersion objective. Fluorescence images were acquired by excitation at 405, 488, 561, or 640 nm derived from diode lasers.
For evaluating the concentration dependency of fluorophore-ligand conjugates, 0.1 nM probe in HBS was added to the dish. Then, probes in HBS were added stepwise to the dish to a final concentration of 0.3, 1, 3, 10, 30, 100, 300, 1000, and 3000 nM. Cell surface fluorescence intensity was quantified from the line scans of transfection marker positive cells and calculated with subtraction of background by ZEN blue software (Carl Zeiss). […]
(A) Concentration-dependent binding of PFQX1(AF488) to GluA2 flip(R) expressed with GSG1L or TARP γ7. […] (B) The surface intensity of PFQX1(AF488) was quantified. […]

GluA2 = target: T3, GluA2 (Mus musculus, UniProt P23819, DEL765-802); assay: Kinetics and reversibility of PFQX1(AF488) binding in HEK293T cells expressing GluA2; conditions: 100 nM probe
T3 construct: expressed in transfected cells; host or cells: HEK293T
Protocol: HEK293T cells were transfected with Halo-tag-GluA2^flip(Q)-3′UTR. The cells were incubated with 500 nM Halo-Tag ligand-Alexa647 [HTL(AF647)] for 15 min at room temperature. AF647 was used as a transfection marker. The cells were washed three times with HBS, and a cloning ring (16 mm φ) was placed on the dish to accelerate the diffusion of the probe solution. After the dish was set on the stage, 100 nM PFQX1(AF488) was added to inside the cloning ring and imaged at specified time points by confocal microscopy.
For evaluating reversibility, 100 nM PFQX1(AF488) in HBS was added to the dish. The cells were observed by confocal microscopy as the first image. Then, the cells were washed three times with HBS and scanned as the wash image. After removal of the buffer, 100 nM PFQX1(AF488) was re-treated, and the cells were scanned as the second image. To quantify the fluorescence intensity of the membrane, the average signal intensity of regions of interest (ROIs) set on the membrane was calculated after subtracting background fluorescence by ZEN blue software.

T3 sequence (P23819 with tags, fused parts or gaps isoform P23819-4 DEL765-802): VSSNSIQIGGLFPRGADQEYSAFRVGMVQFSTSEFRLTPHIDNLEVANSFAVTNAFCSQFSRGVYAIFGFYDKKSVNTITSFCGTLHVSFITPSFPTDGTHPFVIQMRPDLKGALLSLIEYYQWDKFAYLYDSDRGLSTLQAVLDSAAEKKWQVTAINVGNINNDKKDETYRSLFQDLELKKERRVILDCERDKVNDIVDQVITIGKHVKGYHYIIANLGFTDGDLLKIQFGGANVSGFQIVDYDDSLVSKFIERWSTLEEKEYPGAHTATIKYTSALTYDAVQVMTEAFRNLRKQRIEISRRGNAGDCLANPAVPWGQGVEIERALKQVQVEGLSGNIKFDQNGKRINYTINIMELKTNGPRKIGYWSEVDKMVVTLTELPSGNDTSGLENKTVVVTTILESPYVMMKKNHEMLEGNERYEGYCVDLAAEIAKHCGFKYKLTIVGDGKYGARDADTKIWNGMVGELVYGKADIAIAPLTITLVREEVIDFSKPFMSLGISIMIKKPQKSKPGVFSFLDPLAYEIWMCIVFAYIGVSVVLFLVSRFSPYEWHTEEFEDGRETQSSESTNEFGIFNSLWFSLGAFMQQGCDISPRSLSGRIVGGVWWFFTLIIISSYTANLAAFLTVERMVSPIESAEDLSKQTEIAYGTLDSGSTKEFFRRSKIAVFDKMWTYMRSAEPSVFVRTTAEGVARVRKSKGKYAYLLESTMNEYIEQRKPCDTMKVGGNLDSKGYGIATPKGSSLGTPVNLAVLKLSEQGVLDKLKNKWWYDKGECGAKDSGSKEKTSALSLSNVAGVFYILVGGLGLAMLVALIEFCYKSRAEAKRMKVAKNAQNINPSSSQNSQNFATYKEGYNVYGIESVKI
T2 sequence (P23819 with tags, fused parts or gaps isoform P23819-4 Q607R/DEL765-802): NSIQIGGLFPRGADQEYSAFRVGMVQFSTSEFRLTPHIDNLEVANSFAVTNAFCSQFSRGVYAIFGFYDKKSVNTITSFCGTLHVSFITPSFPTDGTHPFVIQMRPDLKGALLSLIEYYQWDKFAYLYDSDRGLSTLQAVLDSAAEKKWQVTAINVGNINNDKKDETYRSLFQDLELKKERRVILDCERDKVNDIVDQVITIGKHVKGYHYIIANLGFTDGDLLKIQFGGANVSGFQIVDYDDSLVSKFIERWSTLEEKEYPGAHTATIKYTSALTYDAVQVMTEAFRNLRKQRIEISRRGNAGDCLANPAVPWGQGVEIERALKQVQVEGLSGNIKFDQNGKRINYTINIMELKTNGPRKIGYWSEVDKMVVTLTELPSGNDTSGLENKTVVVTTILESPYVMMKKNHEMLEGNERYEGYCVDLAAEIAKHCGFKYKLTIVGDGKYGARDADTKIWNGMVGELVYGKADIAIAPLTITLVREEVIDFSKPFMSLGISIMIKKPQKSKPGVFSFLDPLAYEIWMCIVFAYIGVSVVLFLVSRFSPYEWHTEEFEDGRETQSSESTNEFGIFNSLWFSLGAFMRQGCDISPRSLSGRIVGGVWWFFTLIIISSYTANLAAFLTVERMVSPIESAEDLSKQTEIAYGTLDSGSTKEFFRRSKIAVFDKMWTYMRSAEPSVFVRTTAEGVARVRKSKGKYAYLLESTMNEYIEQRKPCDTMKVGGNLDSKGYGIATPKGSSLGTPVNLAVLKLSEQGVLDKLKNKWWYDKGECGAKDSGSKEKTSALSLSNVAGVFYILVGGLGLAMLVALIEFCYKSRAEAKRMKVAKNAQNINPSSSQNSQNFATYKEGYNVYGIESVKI
T1 sequence (P23819 with tags, fused parts or gaps isoform P23819-4 Q607R/DEL765-802): as above
T1 sequence (P62956 whole entry partner): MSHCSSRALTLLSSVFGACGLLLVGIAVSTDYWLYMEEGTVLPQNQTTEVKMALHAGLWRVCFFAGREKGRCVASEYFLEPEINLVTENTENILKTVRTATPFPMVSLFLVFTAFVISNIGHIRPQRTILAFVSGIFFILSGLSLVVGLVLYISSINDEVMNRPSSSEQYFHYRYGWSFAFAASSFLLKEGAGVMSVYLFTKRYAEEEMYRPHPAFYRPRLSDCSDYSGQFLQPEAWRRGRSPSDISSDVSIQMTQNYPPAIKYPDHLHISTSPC

Q: For `N=c1ccc2c(-c3ccc(C(=O)NCc4ccn(-c5cc6c(cc5C(F)(F)F)[nH]c(=O)c(=O)n6CC(=O)O)c4)cc3C(=O)O)c3ccc(N)c(S(=O)(=O)O)c3oc-2c1S(=O)(=O)O` [PFQX1(AF488)], which “reversibility of binding (medium exchange) in slices” value (AMPARs) is on record?
A: The value was “can be washed out by the medium exchange”.

Q: And the Kd (GluA2flip(R) + TARP γ7)?
A: The Kd was 118 ± 44.7 nM.

Q: And the Kd (GluA2flip(R))?
A: The Kd was 32.3 ± 4.7 nM.

Q: What about the “reversibility of binding (medium exchange)” value (GluA2) of the same compound?
A: Its value is “fluorescence from the cell surface was lost after the medium exchange”.

Q: And the “time to saturation of cell-surface fluorescence after probe addition” value (GluA2)?
A: Its value is at most 20 s.

Reference: publication PMC12143348, “Rapid and reversible fluorescent probe enables repeated snapshot imaging of AMPA receptors during synaptic plasticity” (Science Advances, 2025)
